Measurements taken from ChEMBL document CHEMBL1137827, “Spiroquinazolinones as novel, potent, and selective PDE7 inhibitors. Part 1” (Bioorg Med Chem Lett, 2004).

Experiments:
[1] = molecular target: T1, cGMP-specific 3',5'-cyclic phosphodiesterase (Homo sapiens, UniProt O76074); assay: In vitro inhibition of human Phosphodiesterase 5
Phosphodiesterase 1 [2] = molecular target: T2, Phosphodiesterase 1 (Homo sapiens, UniProt P54750+Q01064+Q14123); assay: In vitro inhibition of human Phosphodiesterase 1 partially purified from THP-1 cells
[3] = molecular target: T3, cGMP-inhibited 3',5'-cyclic phosphodiesterase 3A (Homo sapiens, UniProt Q14432); assay: In vitro inhibition of human Phosphodiesterase 3A3 expressed in baculovirus infected Sf9 cells
T3 sequence (Q14432 whole entry): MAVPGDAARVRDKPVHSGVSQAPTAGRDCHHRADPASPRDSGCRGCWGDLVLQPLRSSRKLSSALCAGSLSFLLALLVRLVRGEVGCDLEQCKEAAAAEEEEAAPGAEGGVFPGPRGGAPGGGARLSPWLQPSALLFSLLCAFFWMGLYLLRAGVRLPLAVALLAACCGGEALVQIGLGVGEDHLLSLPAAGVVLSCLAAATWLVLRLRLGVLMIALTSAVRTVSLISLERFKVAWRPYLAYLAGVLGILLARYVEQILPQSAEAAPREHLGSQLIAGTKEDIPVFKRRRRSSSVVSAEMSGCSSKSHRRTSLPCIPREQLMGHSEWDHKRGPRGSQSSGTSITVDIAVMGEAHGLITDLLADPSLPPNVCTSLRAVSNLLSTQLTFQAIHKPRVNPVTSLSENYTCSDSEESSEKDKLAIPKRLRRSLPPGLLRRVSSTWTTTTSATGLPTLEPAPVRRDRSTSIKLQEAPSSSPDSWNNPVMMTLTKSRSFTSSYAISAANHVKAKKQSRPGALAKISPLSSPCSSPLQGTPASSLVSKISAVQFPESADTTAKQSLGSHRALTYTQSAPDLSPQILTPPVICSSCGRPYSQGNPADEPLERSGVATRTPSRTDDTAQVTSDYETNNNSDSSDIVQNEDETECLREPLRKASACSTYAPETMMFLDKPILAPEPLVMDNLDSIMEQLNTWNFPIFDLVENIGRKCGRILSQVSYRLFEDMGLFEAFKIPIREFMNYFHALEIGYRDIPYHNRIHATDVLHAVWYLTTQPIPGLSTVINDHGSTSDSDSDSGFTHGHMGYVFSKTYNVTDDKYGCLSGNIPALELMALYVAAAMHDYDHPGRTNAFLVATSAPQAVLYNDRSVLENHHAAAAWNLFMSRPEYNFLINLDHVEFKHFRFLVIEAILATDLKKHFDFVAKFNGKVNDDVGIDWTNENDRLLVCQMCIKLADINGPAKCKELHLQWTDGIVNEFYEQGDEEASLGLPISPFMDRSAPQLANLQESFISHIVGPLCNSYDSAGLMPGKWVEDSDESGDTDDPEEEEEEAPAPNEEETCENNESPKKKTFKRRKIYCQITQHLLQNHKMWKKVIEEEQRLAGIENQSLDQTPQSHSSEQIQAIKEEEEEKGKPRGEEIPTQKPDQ

[4] = molecular target: T4, 3',5'-cyclic-AMP phosphodiesterase 4D (Homo sapiens, UniProt Q08499); assay: In vitro inhibition of human Phosphodiesterase 4D3 expressed in baculovirus infected Sf9 cells
T4 sequence (Q08499 whole entry): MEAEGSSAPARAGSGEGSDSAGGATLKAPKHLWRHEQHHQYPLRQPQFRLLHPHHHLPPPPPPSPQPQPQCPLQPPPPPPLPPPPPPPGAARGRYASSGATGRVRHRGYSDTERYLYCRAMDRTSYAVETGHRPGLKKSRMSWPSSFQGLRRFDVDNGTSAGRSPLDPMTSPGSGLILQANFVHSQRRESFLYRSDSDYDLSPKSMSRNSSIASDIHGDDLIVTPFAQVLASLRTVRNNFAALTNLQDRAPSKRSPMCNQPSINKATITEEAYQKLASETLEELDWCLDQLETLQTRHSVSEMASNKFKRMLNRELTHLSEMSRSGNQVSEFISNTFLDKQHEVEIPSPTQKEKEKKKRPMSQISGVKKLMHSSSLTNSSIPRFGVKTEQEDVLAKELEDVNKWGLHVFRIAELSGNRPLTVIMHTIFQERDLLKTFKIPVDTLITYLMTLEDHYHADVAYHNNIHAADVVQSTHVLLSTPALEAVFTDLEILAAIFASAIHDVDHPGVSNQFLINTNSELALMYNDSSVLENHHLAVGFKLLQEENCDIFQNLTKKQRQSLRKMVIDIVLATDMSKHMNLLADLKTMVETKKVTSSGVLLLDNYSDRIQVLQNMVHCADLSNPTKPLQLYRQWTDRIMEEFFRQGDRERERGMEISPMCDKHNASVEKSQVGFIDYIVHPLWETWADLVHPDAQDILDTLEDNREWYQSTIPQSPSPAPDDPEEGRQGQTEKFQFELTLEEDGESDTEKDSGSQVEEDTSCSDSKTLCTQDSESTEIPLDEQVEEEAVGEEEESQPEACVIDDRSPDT

[5] = molecular target: T5, High affinity 3',5'-cyclic-AMP phosphodiesterase 7A (Homo sapiens, UniProt Q13946); assay: In vitro inhibition of human Phosphodiesterase 7A1 expressed in baculovirus infected Sf9 cells
T5 sequence (Q13946 whole entry): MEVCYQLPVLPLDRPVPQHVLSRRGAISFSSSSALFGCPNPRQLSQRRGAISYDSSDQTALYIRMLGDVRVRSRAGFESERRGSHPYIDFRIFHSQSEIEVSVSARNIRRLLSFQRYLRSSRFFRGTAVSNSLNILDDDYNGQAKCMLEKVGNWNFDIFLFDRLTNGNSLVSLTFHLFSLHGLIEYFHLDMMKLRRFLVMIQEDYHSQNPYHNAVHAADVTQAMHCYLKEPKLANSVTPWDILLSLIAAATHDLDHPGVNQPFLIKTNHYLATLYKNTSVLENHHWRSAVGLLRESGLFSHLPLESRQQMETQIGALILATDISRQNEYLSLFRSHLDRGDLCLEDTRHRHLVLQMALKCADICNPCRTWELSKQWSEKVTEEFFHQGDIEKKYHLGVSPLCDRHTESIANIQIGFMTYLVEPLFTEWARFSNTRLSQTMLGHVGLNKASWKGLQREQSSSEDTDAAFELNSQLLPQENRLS

[6] = molecular target: T3, cGMP-inhibited 3',5'-cyclic phosphodiesterase 3A; assay: Inhibition of human Phosphodiesterase 3A3 expressed in baculovirus infected Sf9 cells
[7] = molecular target: T4, 3',5'-cyclic-AMP phosphodiesterase 4D; assay: Inhibition of human Phosphodiesterase 4D3 expressed in baculovirus infected Sf9 cells
[8] = molecular target: T5, High affinity 3',5'-cyclic-AMP phosphodiesterase 7A; assay: Inhibition of human Phosphodiesterase 7A1 expressed in baculovirus infected Sf9 cells
Phosphodiesterase 1 [9] = molecular target: T2, Phosphodiesterase 1; assay: Inhibition of human Phosphodiesterase 1 partially purified from THP-1 cells; type: cell-free
[10] = molecular target: T1, cGMP-specific 3',5'-cyclic phosphodiesterase; assay: Inhibition of human Phosphodiesterase 5

Structure (SMILES) | IC50 [1] [nM] | IC50 (Phosphodiesterase 1 [2]) [nM] | IC50 [3] [nM] | IC50 [4] [nM] | IC50 [5] [nM] | IC50 [8] [nM] | also measured
O=C1Nc2c(Cl)cc(-c3ccccc3)cc2C2(CCCCC2)N1 |  |  |  |  |  | 10 | IC50 [6]: > 101000 nM; IC50 [7]: 1420 nM; IC50 (Phosphodiesterase 1 [9]): 3260 nM; IC50 [10]: 69800 nM
CN1CCN(C(=O)c2ccc(-c3cc(Cl)c4c(c3)C3(CCCCC3)NC(=O)N4)cc2)CC1 |  | 7010 | 29300 | 1700 | 10 |  | IC50 [10]: 29300 nM
O=C1Nc2cc(Cl)c(Cl)cc2C2(CCCCC2)N1 |  |  |  |  |  | 3700 | 
O=C1Nc2ccc(-c3ccccc3)cc2C2(CCCCC2)N1 |  |  |  |  |  | 980 | 
O=C1Nc2c(Cl)cc(Cl)cc2C2(CCCCC2)N1 |  |  |  |  |  | 120 | 
O=C1Nc2c(Cl)cc(-c3cccnc3)cc2C2(CCCCC2)N1 | 19300 | 2860 | 14800 | 1550 | 50 |  | 
COc1cc(Cl)c2c(c1)C1(CCCCC1)NC(=O)N2 |  |  |  |  |  | 160 | 
O=C1Nc2c(Cl)cc(-c3ccncc3)cc2C2(CCCCC2)N1 | 9470 | 3010 | 11200 | 1010 | 30 |  | 
NC(=O)c1ccc(-c2cc(Cl)c3c(c2)C2(CCCCC2)NC(=O)N3)cc1 |  | 1280 | 280 |  | 20 |  | IC50 [7]: 690 nM; IC50 [10]: 11600 nM
O=C1Nc2c(Cl)cc(-c3ccc(C(=O)O)cc3)cc2C2(CCCCC2)N1 | 8500 | 890 | 21300 | 470 | 10 |  | 
CN1CCN(C(=O)c2cccc(-c3cc(Cl)c4c(c3)C3(CCCCC3)NC(=O)N4)c2)CC1 | 52400 | 6390 | 31600 | 1310 |  | 40 | 
CN1CCN(C(=O)c2ccccc2-c2cc(Cl)c3c(c2)C2(CCCCC2)NC(=O)N3)CC1 | > 101000 | 20100 | > 92000 | 15700 | 1520 |  | 
O=C1Nc2c(Cl)cc(-c3ccccn3)cc2C2(CCCCC2)N1 | 68400 | 8300 | 45100 | 1800 | 30 |  | 
O=C1Nc2ccc(Cl)c(Cl)c2C2(CCCCC2)N1 |  |  |  |  |  | 600 | 
CN(C)CCNC(=O)c1ccc(-c2cc(Cl)c3c(c2)C2(CCCCC2)NC(=O)N3)cc1 | > 67300 | 6290 | 42200 | 1630 | 20 |  | 
O=C1Nc2c(Cl)cc(-c3cccc(C(=O)O)c3)cc2C2(CCCCC2)N1 | 12600 | 710 | 16700 | 740 | 20 |  | 
CN(C)CCCNC(=O)c1ccc(-c2cc(Cl)c3c(c2)C2(CCCCC2)NC(=O)N3)cc1 | > 50700 | 6470 | 44500 | 1500 | 20 |  | 

The next lines start with results.

IC50 [1] [nM] | IC50 (Phosphodiesterase 1 [2]) [nM] | IC50 [3] [nM] | IC50 [4] [nM] | IC50 [5] [nM] | IC50 [8] [nM] | Structure (SMILES) | also measured
> 84900 | 5160 | 78100 | 1460 | 10 |  | CN(C)CCCNC(=O)c1cccc(-c2cc(Cl)c3c(c2)C2(CCCCC2)NC(=O)N3)c1 | 
 |  |  |  |  | 4800 | O=C1Nc2ccc(Cl)cc2C2(CCCCC2)N1 | 
 |  |  |  |  | 790 | Cc1cccc2c1NC(=O)NC21CCCCC1 | 
 |  |  |  |  | 6540 | CCC1(CC)NC(=O)Nc2c(Br)cccc21 | 
 |  |  |  |  | 6850 | O=C1Nc2c(I)cccc2C2(CCCCC2)N1 | 
 |  |  |  |  | 3200 | COc1ccc2c(c1)C1(CCCCC1)NC(=O)N2 | 
 |  |  |  |  | 1400 | O=C1Nc2c(Br)cccc2C2(CCC2)N1 | 
 |  |  |  |  | 6600 | O=C1Nc2ccccc2C2(CCCCC2)N1 | 
 |  |  |  |  | 2700 | O=C1Nc2cc(Cl)ccc2C2(CCCCC2)N1 | 
 |  |  |  |  | 2960 | O=C1Nc2c(C(F)(F)F)cccc2C2(CCCCC2)N1 | 
 |  |  |  |  | 60 | O=C1Nc2c(Br)cccc2C2(CCCCC2)N1 | 
 |  |  |  |  | 210 | CC1CCC2(CC1)NC(=O)Nc1c(Br)cccc12 (configuration not stated) | 
 |  |  |  |  | 160 | Cc1cc(Cl)c2c(c1)C1(CCCCC1)NC(=O)N2 | 
 |  |  |  |  | 2660 | CCCC1(CCC)NC(=O)Nc2c(Br)cccc21 | 
 |  |  |  |  | 840 | O=C1Nc2cccc(Cl)c2C2(CCCCC2)N1 | 
 |  |  |  |  | 390 | O=C1Nc2c(F)cccc2C2(CCCCC2)N1 | 
> 101000 | 11600 | > 79900 | 1590 | 20 |  | CN(C)CCNC(=O)c1cccc(-c2cc(Cl)c3c(c2)C2(CCCCC2)NC(=O)N3)c1 | 
 |  |  |  |  | 9500 | COc1ccc2c(c1)NC(=O)NC21CCCCC1 | 
 |  |  |  |  | 60 | O=C1Nc2c(Br)cccc2C2(CCCCCC2)N1 | 
